Results as given in US20200261440A1, “ZINC IONOPHORES AND USES THEREOF” (THE UNIVERSITY OF QUEENSLAND, priority 2017, published 2020).
Marks after values point to notes of the source that are not given here.

Tests used:
[1] = tested on: MCR-1 E. coli strain MS8345; assay: MIC by broth microdilution (CLSI); format: cell-based, Escherichia coli; details: for antibiotic sensitivity of resistant strain: MCR1-positive E. coli MS8345; for MIC: MCR-1 E. coli
Protocol: (§1) J. Path. Bact. […] Proc. Soc.
J Infect Dis. 1995 171:890-6). E. coli strain MS8345 is a MCR-1 resistant clinical isolate supplied by Prof. D. L. Paterson, University of Queensland Centre for Clinical Research.
(§2) (2017)]. […] MIC assays were carried out in biological triplicates.

[2] = tested on: P. aeruginosa strain 253-43-C; assay: MIC by broth microdilution (CLSI); format: cell-based, Pseudomonas aeruginosa
Protocol: (§3) They were obtained from Jan Bell, Australian Centre of Microbial Resistance Ecology (ACARE), University of Adelaide, Australia.
as §2

[3] = tested on: GAS strain HKU16 (Streptococcus pyogenes strain HKU16); assay: microbe, parasite or virus in culture; format: cell-based
Protocol: as §1
(§4) MIC assays were carried out in biological triplicates.
(§5) M100 Performance Standards for Antimicrobial Susceptibility Testing, 27th Edition.

[4] = tested on: Methicillin-resistant Staphylococcus aureus (MRSA) strain USA300; assay: MIC by broth microdilution (CLSI)
[5] = tested on: Vancomycin-resistant Enterococci (VRE) clinical isolate RBWH1; assay: MIC by broth microdilution (CLSI); format: cell-based, Enterococcus
Protocol: as §1, §4, §5

[6] = tested on: Klebsiella pneumoniae strain MS6771; assay: MIC by broth microdilution (CLSI); format: cell-based
[7] = tested on: A. baumannii strain 42-A; assay: MIC by broth microdilution (CLSI); format: cell-based, Acinetobacter baumannii; details: Untreated
Protocol: as §3, §2

With colistin the “antibiotic sensitivity of resistant strain” value (shortened to “antibiotic sensitivity”) ([1]; addition of sub-inhibitory PBT2+zinc(II) ions) was “became sensitive”, the “antibiotic sensitivity” value ([1]; combination with PBT2, no zinc) was “resulted in sensitivity” and the MIC ([1]; CQ: 0 μM, Zinc: 0 μM) was 8 mg/L. It also gave an MIC ([1]; CQ: 5 μM) of 2 mg/L, an MIC ([1]; CQ: 5 μM, Zinc: 25 μM) of 0.5 to 1 mg/L and an MIC ([1]; PBT2: 0 μM, Zinc: 0 μM) of 8 mg/L. The MIC ([1]; PBT2: 7 μM) was 1 mg/L, the MIC ([1]; PBT2: 7 μM, Zinc: 200 μM) was 0.25 mg/L and the MIC ([1]; Zinc: 25 μM) was 8 mg/L. It also gave an MIC ([1]; Zinc: 200 μM) of 8 mg/L, an MIC ([2]; PBT2) of 1 mg/L and an MIC ([2]; Untreated) of 8 mg/L. The antibiotic resensitization ([3]; GAS HKU16, RA-HQ-12+zinc(II) ions (ZnSO4)) was “resensitize”, the “antibiotic sensitivity” value ([3]; GAS HKU16, addition of sub-inhibitory PBT2+zinc(II) ions) was “became sensitive” and the MIC ([3]; GAS, RA-HQ-12: 3.5 μM, Zn: […]) was 2-4^# μg/mL. For the same substance, the MIC ([3]; Streptococcus pyogenes HKU16, CQ: 6 μM) was 64 µg/mL, the MIC ([3]; Streptococcus pyogenes HKU16, CQ: 6 μM, Zinc: 80 μM) was 1 µg/mL and the MIC ([3]; Streptococcus pyogenes HKU16, PBT2: 4.75 μM) was 32 µg/mL. The MIC ([3]; Streptococcus pyogenes HKU16, PBT2: 4.75 μM, Zinc: […]) was 0.5-1^ μg/mL, the MIC ([4]; MRSA USA300, CQ: 1 μM, Zinc: 32 μM) was 2 mg/L and the MIC ([4]; MRSA USA300, PBT2: 2 μM, Zinc: 50 μM) was 2 mg/L. The antibiotic resensitization ([4]; MRSA USA 300, RA-HQ-12+zinc(II) ions (ZnSO4)) was “resensitize”, the “antibiotic sensitivity” value ([4]; MRSA USA300, addition of sub-inhibitory PBT2+zinc(II) ions) was “became sensitive” and the MIC ([4]; MRSA, RA-HQ-12: 3.5 μM, Zn: […], oxacillin with 2% NaCl) was 8 mg/L. For the same substance, the MIC ([4]; MRSA, RA-HQ-12: 3.5 μM, oxacillin with 2% NaCl) was 64 mg/L, the MIC ([5]; VRE RBWH1, CQ: 2.5 μM, Zinc: 32 μM) was 0.5 to 1 µg/mL and the MIC ([5]; VRE RBWH1, PBT2: 1.75 μM, Zinc: […]) was 0.5 µg/mL. The antibiotic resensitization ([5]; VRE RBWH1, RA-HQ-12+zinc(II) ions (ZnSO4)) was “resensitize”, the “antibiotic sensitivity” value ([5]; VRE RBWH1, addition of sub-inhibitory PBT2+zinc(II) ions) was “became sensitive” and the MIC ([5]; VRE, RA-HQ-12: 3.5 μM) was 32 µg/mL. The MIC ([5]; VRE, RA-HQ-12: 3.5 μM, Zn: […]) was 2-4^# μg/mL, the MIC ([6]; K. pneumoniae, RA-HQ-12: 0 μM, Zn: 0 μM) was 64 µg/mL and the MIC ([6]; K. pneumoniae, RA-HQ-12: 16 μM) was 32 µg/mL. The MIC ([6]; K. pneumoniae, RA-HQ-12: 16 μM, Zn: 64 μM) was 4^# μg/mL, the MIC ([6]; K. pneumoniae, Zn: 64 μM) was 64 µg/mL and the antibiotic resensitization ([6]; Klebsiella pneumoniae MS6771, RA-HQ-12+zinc(II) ions (ZnSO4)) was “resensitize”. The “antibiotic sensitivity” value ([6]; Klebsiella pneumoniae MS6771, addition of sub-inhibitory PBT2+zinc(II) ions) was “became sensitive”, the “antibiotic sensitivity” value ([6]; Klebsiella pneumoniae MS6771, combination with PBT2, no zinc) was “resulted in sensitivity” and the MIC ([6]; Klebsiella pneumoniae, CQ: 0 μM, Zinc: 0 μM) was 64 µg/mL. The MIC ([6]; Klebsiella pneumoniae, CQ: 64 μM) was 0.5 µg/mL, the MIC ([6]; Klebsiella pneumoniae, CQ: 64 μM, Zinc: 256 μM) was 0.5 µg/mL and the MIC ([6]; Klebsiella pneumoniae, PBT2: 0 μM, Zinc: 0 μM) was 32 to 64 µg/mL. It also gave an MIC ([6]; Klebsiella pneumoniae, Zinc: 256 μM (CQ panel)) of 32 to 64 µg/mL, an MIC ([6]; Klebsiella pneumoniae, Zinc: 256 μM (PBT2 panel)) of 32 to 64 µg/mL and an MIC [7] of over 64 mg/L.
